This is an account of results in ChEMBL document CHEMBL4371069, “Click chemistry for improvement in selectivity of quinazoline-based kinase inhibitors for mutant epidermal growth factor receptors” (Bioorg Med Chem Lett, 2019).

The structures appear in SMILES notation. A value given as a limit tells only on which side of the number the result lay.

The nature of series [1]: Safety index, ratio of compound IC50 to afatinib IC50 for antiproliferative activity against HER2-dependant human SKBR3 cells. It counts as cell-based. As to conditions: SK-BR-3 cells (HER2-dependent), read-out: Ratio IC50.
The target of the next series is T1, CYP2C8 (Homo sapiens, UniProt P10632).
T1 sequence (P10632 whole entry): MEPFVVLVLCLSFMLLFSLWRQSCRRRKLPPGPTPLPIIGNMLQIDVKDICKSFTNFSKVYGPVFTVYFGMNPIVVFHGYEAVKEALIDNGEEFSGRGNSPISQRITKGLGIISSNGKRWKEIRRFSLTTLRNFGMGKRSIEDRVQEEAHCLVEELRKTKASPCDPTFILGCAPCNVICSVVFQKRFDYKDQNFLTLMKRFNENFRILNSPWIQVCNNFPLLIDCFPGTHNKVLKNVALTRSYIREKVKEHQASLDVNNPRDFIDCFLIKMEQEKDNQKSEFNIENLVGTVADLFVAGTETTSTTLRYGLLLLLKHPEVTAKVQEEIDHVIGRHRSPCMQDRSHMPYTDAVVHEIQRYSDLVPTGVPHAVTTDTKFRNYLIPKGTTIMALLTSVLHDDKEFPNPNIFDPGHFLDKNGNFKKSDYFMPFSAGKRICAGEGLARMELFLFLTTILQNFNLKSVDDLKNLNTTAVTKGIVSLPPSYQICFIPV
Description: Inhibition of CYP2C8 in human liver microsomes assessed as residual activity at 10 uM using amiodiaquine as substrate preincubated for 5 mins followed by NADPH addition and measured after 15 mins by LC-MS/MS analysis relative to control. The format is ADME. As to conditions: probe amiodiaquine, read-out: Activity. For orientation: Microsomes from liver hold many membrane-bound enzymes, among them those of drug oxidation.

The next series concerns SK-BR-3. Description: Antiproliferative activity against HER2-dependant human SKBR3 cells after 72 hrs by EZ-Cytox assay. To be noted: SK-BR-3, 72 h. It counts as ADME, cell-based.
The next series has as its target CYP2D6 (Homo sapiens, UniProt P10635). The series is described as follows: Inhibition of CYP2D6 in human liver microsomes assessed as residual activity at 10 uM using dextromethorphan as substrate preincubated for 5 mins followed by NADPH addition and measured after 15 mins by LC-MS/MS analysis relative to control. It counts as ADME. As to conditions: probe dextromethorphan, read-out: Activity.

For a further series, the target named is CYP2C19 (Homo sapiens, UniProt P33261). Description: Inhibition of CYP2C19 in human liver microsomes assessed as residual activity at 10 uM using S-mephenytoin as substrate preincubated for 5 mins followed by NADPH addition and measured after 15 mins by LC-MS/MS analysis relative to control. The format is ADME. As to conditions: probe S-mephenytoin, read-out: Activity.
Chain of CYP2C19 (P33261 whole entry): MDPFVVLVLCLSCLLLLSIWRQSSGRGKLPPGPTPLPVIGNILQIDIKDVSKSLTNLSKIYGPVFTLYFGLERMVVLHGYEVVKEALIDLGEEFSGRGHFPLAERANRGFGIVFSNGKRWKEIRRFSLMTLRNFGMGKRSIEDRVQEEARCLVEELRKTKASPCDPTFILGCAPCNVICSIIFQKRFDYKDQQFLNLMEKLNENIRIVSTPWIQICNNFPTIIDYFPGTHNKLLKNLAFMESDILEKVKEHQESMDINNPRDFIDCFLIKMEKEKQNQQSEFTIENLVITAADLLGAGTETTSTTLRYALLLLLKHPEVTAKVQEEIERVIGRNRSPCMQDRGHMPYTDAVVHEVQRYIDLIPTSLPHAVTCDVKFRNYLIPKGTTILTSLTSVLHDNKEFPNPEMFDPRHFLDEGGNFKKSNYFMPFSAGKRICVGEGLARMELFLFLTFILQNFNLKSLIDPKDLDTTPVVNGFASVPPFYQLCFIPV

The subject of a further series is NCI-H1975. The series is described as follows: Antiproliferative activity against human NCI-H1975 cells harboring EGFR T790M/L858R double mutant after 72 hrs by EZ-Cytox assay. It counts as functional, cell-based. To be noted: NCI-H1975, 72 h.
The test system of series [2] is PC-9. The series is described as follows: Antiproliferative activity against human PC9 cells harboring EGFR exon-19 del mutant after 72 hrs by EZ-Cytox assay. It counts as functional, cell-based. To be noted: PC-9, 72 h.
For a further series, the target named is CYP3A4 (Homo sapiens, UniProt P08684). Description: Inhibition of CYP3A4 in human liver microsomes assessed as residual activity at 10 uM using midazolam as substrate preincubated for 5 mins followed by NADPH addition and measured after 15 mins by LC-MS/MS analysis relative to control. The format is ADME. To be noted: probe midazolam, read-out: Activity.
Chain of CYP3A4 (P08684 whole entry): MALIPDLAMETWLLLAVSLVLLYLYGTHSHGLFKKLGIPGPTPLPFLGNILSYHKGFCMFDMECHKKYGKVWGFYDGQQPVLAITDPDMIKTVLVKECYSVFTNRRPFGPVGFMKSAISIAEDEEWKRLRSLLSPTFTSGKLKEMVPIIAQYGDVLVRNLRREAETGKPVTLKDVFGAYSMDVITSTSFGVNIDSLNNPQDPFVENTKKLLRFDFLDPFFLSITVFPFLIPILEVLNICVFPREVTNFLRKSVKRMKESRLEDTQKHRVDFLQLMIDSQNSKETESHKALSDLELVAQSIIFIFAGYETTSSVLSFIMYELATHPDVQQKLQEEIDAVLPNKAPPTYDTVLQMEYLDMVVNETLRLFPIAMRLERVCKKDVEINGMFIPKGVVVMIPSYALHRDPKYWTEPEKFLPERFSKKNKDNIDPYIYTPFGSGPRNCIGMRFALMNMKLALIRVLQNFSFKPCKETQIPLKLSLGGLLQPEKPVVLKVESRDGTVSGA

Series [3] has as its target Epidermal growth factor receptor (Homo sapiens, UniProt P00533, L858R/T790M). The series is described as follows: biochemical. The format is cell-based, Sf21.
Series [4] can be described thus: Selectivity index, ratio of IC50 for human C-terminal His6-tagged ERBB2 (676 to end residues) expressed in baculovirus infected sf21 cells to IC50 for human N-terminal GST-tagged EGFR T790M/L858R double mutant (696 to end residues) expressed in baculovirus infected sf21 cells.
Series [5] has as its system PC-9. Description: Potency index, ratio of gefitinib IC50 to compound IC50 for antiproliferative activity against human PC9 cells harboring EGFR exon-19 del mutant. The format is functional.
In series [6] the test system is Epidermal growth factor receptor (Homo sapiens), P00533 [L858R,T790M]. The series is described as follows: Potency index, ratio of afatinib IC50 to compound IC50 for inhibition of human N-terminal GST-tagged EGFR T790M/L858R double mutant (696 to end residues) expressed in baculovirus infected sf21 cells.
Series [7] is described as follows: Selectivity index, ratio of IC50 for human N-terminal GST-tagged EGFR kinase domain (696 to end residues) expressed in baculovirus infected sf21 cells to IC50 for human N-terminal GST-tagged EGFR T790M/L858R double mutant (696 to end residues) expressed in baculovirus infected sf21 cells.

Chain of CYP2D6 (P10635 whole entry): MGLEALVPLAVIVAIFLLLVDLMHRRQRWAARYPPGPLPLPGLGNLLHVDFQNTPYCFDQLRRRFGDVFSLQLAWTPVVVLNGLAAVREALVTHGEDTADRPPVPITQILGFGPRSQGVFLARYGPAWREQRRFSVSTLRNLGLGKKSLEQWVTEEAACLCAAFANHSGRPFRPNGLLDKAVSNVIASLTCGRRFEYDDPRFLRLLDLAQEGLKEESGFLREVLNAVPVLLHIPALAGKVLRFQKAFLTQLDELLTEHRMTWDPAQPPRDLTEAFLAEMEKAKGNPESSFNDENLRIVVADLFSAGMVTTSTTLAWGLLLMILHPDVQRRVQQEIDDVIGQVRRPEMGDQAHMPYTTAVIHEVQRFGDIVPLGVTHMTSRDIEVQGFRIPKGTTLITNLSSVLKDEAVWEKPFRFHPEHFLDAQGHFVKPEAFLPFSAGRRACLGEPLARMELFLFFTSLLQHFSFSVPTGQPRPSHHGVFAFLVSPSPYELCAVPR

The IC50 is the concentration at which inhibition is half-maximal. High values mean lower potency, low ones higher potency. Regarding `C=CC(=O)Nc1cc2c(Nc3ccc(F)c(Cl)c3)ncnc2cc1OCc1cn(Cc2ccc(F)cc2)nn1`, in series [1], the selectivity ratio was greater than 95. In addition, the activity at 0.25 h, 10 µM came to 36.4% at CYP2C8, 12.2% at CYP2D6, 51.1% on CYP2C19 and 55.3% at CYP3A4. For the same molecule, the IC50 in the series on SK-BR-3 is 143 nM; with NCI-H1975, 453 nM; in the series on PC-9 [2], 1 nM; in [3], 6 nM.
In the case of `C=CC(=O)Nc1cc2c(Nc3ccc(F)c(Cl)c3)ncnc2cc1OCc1cn(Cc2ccc(Cl)cc2)nn1`, the selectivity ratio in series [1] is greater than 95. The activity at 0.25 h, 10 µM at CYP2C8 came out at 48.7%; at CYP2D6 it was 24.4%; on CYP2C19, 56.4%; at CYP3A4, 77.6%. The IC50 in the series with SK-BR-3 was found to be 266 nM; in the series with NCI-H1975 it was 304 nM; in the series with PC-9 [2] it was 0.9 nM; in [3], 12 nM.
For `C=CC(=O)Nc1cc2c(Nc3ccc(F)c(Cl)c3)ncnc2cc1OCc1cn(Cc2cccc(F)c2)nn1`, the “Ratio IC50” value in [4] came out at 52; with PC-9 [5], 6.7; in series [6], 3.5; in series [7] it was 17. Further, in [1], the selectivity ratio is greater than 95. Further, the activity at 0.25 h, 10 µM was found to be 35.6% on CYP2C8, 14.9% at CYP2D6, 53.5% at CYP2C19 and 50.1% on CYP3A4. Also, the IC50 stood at 115 nM in the series on SK-BR-3, 505 nM with NCI-H1975, 0.9 nM in the series on PC-9 [2] and 4 nM in [3].
